According to patent publication US20210246140A1, “MODULATORS OF METABOTROPIC GLUTAMATE RECEPTOR 2” (The General Hospital Corporation, priority 2020, published 2021):

What was measured:
Determination of Log P = type: physicochemical; conditions: experimental lipophilicity
Experimental: Determination of Log P The Log P was determined using a reversed-phase HPLC method. First, seven reference compounds were examined to obtain the linear regression of the log P against the log of capacity factors by the expression: log Pow=a+b*log k. The Log P of these reference compounds was already been determined. The capacity factor k was calculated by the expression: k=(tR−t0)/t0. The retention time tR of test compound was determined on the HPLC (Agilent 1260 infinity II LC System, XTerra™ MS Cis 5μ 2.1×250 mm, methanol/water=75/25, 0.25 mL/min). The dead-time to was measured by using thiourea. The linear regression equation of the Log P against the log of capacity factors was generated in Excel: log Pow=3.049+2.429*log k, where R^2 was 0.9964. The retention time of compound 1, 2, and 7 was also determined on the HPLC under the same condition and each test was repeated three times (FIG. 5).
(§1) The experimental lipophilicity was measured by using liquid-liquid partition between n-octanol and water (“shake-flask method”) [see ref. 54]. […] The plasma protein binding comprises compounds' binding to albumin, α1-acid glycoprotein and lipoproteins once delivered to the bloodstream. This property was evaluated for compounds 1 and 2 by equilibrium dialysis [see ref. 56], where two chambers were separated by a dialysis membrane (MWCO 8 kD). The plasma protein bindings of 1 and 2 are 87.2% and 88.7%, respectively (see FIGS. 20 and 6). Therefore, the high plasma free fraction of compounds 1 and 2 (>10%) would allow enough free drug concentration in blood stream to reach the brain targets.

[1] = Plasma stability in rat serum; type: in vitro ADME; conditions: 37° C., diltiazem as positive control
Experimental: Compound stability in rat serum was examined using a published method. [See ref. 57] Rat serum (100 μL, Abeam, Inc, No. ab7488) and test compound or control compound (2.5 μL, 1 mM in DMSO) was added to the individual tube. The tube was vortexed and incubated at 37° C. During the incubation, aliquots of 50 μL samples were quenched with ice-cold acetonitrile at 0, 15, 30, 60, and 120 min time points, respectively. After mixing, the quenched samples were centrifuged, and the supernatant was withdrawn for analysis by HPLC (Agilent 1260 infinity II LC System, XTerra™ MS C18, 5μ, 2.1×250 mm, 20 mM ammonium formate (A)/acetonitrile (B), 0.25 mL/min, gradient of 5% to 100% B). The samples were assayed at least three times. Compound 1-OH was used as internal standard while diltiazem was used as a positive control. The percentage remaining was calculated by (peak area at the specific time point)/(peak area at 0 min)×100% (FIG. 7).
The in vitro plasma and liver microsomal stability of 1 and 2 were studied by incubating the test compounds in rat serum and rat liver microsomes as well as NADPH cofactor, respectively, using previously published methods [see refs. 57, 58]. […] The solution stability of 1 was evaluated with buffer solutions at pH 5.0, 7.4 and 9.4, respectively (FIGS. 10 and 20) [see refs. 61].

[2] = Plasma protein binding assay (equilibrium dialysis, RED device); type: in vitro ADME; conditions: rat plasma
Experimental: Disposable RED device inserts (product 90006) were from Thermos Scientific (Waltham, Mass.). Each insert was made of two side-by-side chambers separated by a vertical cylinder of dialysis membrane (MWCO 8,000) validated for minimal non-specific binding. A stock solution of the test compound in DMSO was spiked into the rat plasma to reach a concentration of 10 μM. 400 μL of sample solution was placed into the sample chamber of the RED device, and 600 μL of phosphate-buffered saline (PBS) was added to the buffer chamber of the RED device. Samples were prepared in triplicates. The plate was covered with aluminum sealing cover and incubated at 37° C. on an orbital shaker at approximately 200 rpm for 5 h. After incubation, 300 μL of post-dialysis samples from the buffer and sample chambers were transferred to different microcentrifuge tubes. To the buffer sample was added 300 μL of plasma, and an equal volume of buffer was added to the collected plasma sample. 600 μL of cold acetonitrile was added to the samples, and the samples were vortexed and incubated for 30 min on ice and then were centrifuged at 14000 rpm for 10 min. Supernatant was transferred to vial for HPLC analysis (XTerra™ MS C18 5μ, 2.1×250 mm column; Gradient elution from 5% to 90% B in 30 min; 0.1 M ammonium formate in water (A) and acetonitrile (B); UV 254 nm; 100 μL of injection volume). The percentage of the test bound compound was calculated as % Free=(Concentration in buffer chamber/Concentration in plasma chamber)×100%; % Bound=100%−% Free (FIG. 6).
as §1

Structure (SMILES): COc1cc(C(F)(F)F)ccc1C1CCN(Cc2nc3ncccc3n2C)CC1 [Compound 1]
- Log P (Determination of Log P): 3.65
- stability in rat plasma [1]: much more stable than diltiazem
- plasma protein binding ([2]; equilibrium dialysis, 10 μM): 87.2%
- fraction unbound at 5 h, 10 μM ([2]; read-out: plasma free fraction): > 0.1
